Measured values: a compilation of properties of binary mixtures

Test: xn = mol fraction of the nth substance listed
Conditions: 101 kPa

CO + CCCC[n+]1ccc(C)cc1.F[B-](F)(F)F
x1 = 1
Conditions | viscosity [mPa·s]
313.15 K | 0.436
323.15 K | 0.383

CCCC[n+]1ccc(C)cc1.F[B-](F)(F)F + CO
viscosity [mPa·s]
Conditions | 298.15 K | 313.15 K | 323.15 K
x1 = 0.0151 | 0.621 | 0.507 | –
x2 = 0 | – | 81 | 50.2
x2 = 0.4287 | – | – | 9.2
x2 = 0.5246 | – | 7.58 | 5.92
x2 = 0.5678 | 9.3 | 6.31 | 4.95
x2 = 0.718 | 4.19 | – | 2.5
x2 = 0.8313 | 2.02 | 1.54 | –
x2 = 0.8803 | 1.46 | – | –
x2 = 0.9154 | 1.11 | 0.877 | 0.763
x2 = 0.9452 | 0.868 | 0.696 | 0.611
x2 = 0.9671 | – | 0.586 | 0.519
x2 = 0.9775 | 0.669 | 0.544 | 0.476
